Data from patent US8735360B2 (priority 2009, dated 2014).
Positions of bridges follow the written chain, without caps; N, C: chain ends. Residues, ends and D or L forms follow the SMILES beside them.

Legend:
female CD-1 mice = format: in vivo; conditions: oral gavage, % distance travelled by charcoal front in small intestine
GC-C [1] = target: T1, GC-C (Homo sapiens, UniProt P25092); format: cell-based; conditions: for Ratio EC50 pH 8/EC50 pH 5: cGMP response in T84 cells; for pH sensitivity with regard to binding and/or activation of GC-C: pH 5 versus pH 8
T1 sequence (P25092 24-1073 limits assumed): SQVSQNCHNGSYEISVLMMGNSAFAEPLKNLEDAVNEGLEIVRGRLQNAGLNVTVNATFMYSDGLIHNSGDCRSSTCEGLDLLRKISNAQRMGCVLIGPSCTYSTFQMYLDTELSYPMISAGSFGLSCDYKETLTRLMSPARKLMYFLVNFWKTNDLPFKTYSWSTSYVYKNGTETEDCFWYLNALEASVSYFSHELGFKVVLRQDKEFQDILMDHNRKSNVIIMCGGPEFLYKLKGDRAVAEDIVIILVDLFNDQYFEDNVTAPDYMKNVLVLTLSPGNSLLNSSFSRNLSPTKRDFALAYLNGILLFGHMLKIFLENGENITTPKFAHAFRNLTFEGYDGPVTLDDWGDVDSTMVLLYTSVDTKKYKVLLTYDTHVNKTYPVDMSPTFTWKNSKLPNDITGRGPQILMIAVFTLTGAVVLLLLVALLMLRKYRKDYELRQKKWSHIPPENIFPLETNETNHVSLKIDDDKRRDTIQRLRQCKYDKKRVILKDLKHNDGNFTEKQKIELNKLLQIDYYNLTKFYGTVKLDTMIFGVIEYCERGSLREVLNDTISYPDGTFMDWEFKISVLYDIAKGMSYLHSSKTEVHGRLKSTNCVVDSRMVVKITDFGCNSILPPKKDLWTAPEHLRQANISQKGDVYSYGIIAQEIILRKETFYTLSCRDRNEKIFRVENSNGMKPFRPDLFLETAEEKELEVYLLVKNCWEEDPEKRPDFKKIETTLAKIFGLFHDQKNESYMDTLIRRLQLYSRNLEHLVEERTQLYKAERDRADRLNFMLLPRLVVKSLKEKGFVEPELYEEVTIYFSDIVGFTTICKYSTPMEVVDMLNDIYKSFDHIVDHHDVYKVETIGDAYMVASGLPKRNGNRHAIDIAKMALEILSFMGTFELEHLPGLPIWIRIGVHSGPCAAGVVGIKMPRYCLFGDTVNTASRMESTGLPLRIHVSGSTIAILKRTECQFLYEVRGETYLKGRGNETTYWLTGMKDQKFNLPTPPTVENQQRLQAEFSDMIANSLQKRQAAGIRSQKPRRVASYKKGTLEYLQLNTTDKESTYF

[2] = test system: ligated duodenal loops in rats; format: in vivo, rat; conditions: 2.5 μg of peptide per loop
GC-C [3] = target: T1, GC-C; format: binding

Structure (SMILES) | ED50 in the gastrointestinal transit assay (female CD-1 mice) [µg/kg] | Ratio EC50 pH 8/EC50 pH 5 (GC-C [1]) | pH sensitivity with regard to binding and/or activation of GC-C (GC-C [1]) | Rate of HCO3- accumulation [2] [neq/min/cm] | Rate of fluid accumulation [2] [µL/min/cm] | Ratio Ki pH 8/Ki pH 5 (GC-C [3])
CC(C)C[C@@H]1NC(=O)[C@H](CCC(=O)O)NC(=O)[C@@H]2CSSC[C@@H]3NC(=O)[C@H](C)NC(=O)[C@@H]4CCCN4C(=O)[C@H](CC(N)=O)NC(=O)[C@H](CSSC[C@H](N)C(=O)N2)NC(=O)[C@H](CSSC[C@@H](C(=O)N[C@@H](Cc2ccc(O)cc2)C(=O)O)NC(=O)CNC(=O)[C@H]([C@@H](C)O)NC3=O)NC1=O [Peptide 1, CCELCCNPACTGCY] (H-CCELCCNPACTGCY-OH; disulfide 1-6, 2-10, 5-13 (inferred); N-terminus and C-terminus assumed) | 0.43 | 8.5 | little or no pH sensitivity | 80 | 2.0 | 0.69
C[C@@H]1NC(=O)[C@@H]2CCCN2C(=O)[C@H](CC(N)=O)NC(=O)[C@@H]2CSSC[C@H](N)C(=O)N[C@H]3CSSC[C@H](NC1=O)C(=O)N[C@@H]([C@@H](C)O)C(=O)NCC(=O)N[C@H](C(=O)N[C@@H](Cc1ccc(O)cc1)C(=O)O)CSSC[C@H](NC(=O)[C@H](Cc1ccccc1)NC(=O)[C@H](CCC(=O)O)NC3=O)C(=O)N2 [Peptide 2, CCEFCCNPACTGCY] (H-CCEFCCNPACTGCY-OH; disulfide 1-6, 2-10, 5-13) | 2.06 | 13.2 | little or no pH sensitivity | 80 | 2.0 | 0.97
C[C@@H]1NC(=O)[C@@H]2CCCN2C(=O)[C@H](CC(N)=O)NC(=O)[C@@H]2CSSC[C@H](NC(=O)[C@H](CC(=O)O)NC(=O)[C@H](CC(=O)O)NC(=O)[C@@H](N)CC(N)=O)C(=O)N[C@H]3CSSC[C@H](NC1=O)C(=O)N[C@@H]([C@@H](C)O)C(=O)NCC(=O)N[C@H](C(=O)N[C@@H](Cc1ccc(O)cc1)C(=O)O)CSSC[C@H](NC(=O)[C@H](Cc1ccc(O)cc1)NC(=O)[C@H](CCC(=O)O)NC3=O)C(=O)N2 [Peptide 3, NDDCCEYCCNPACTGCY] (H-NDDCCEYCCNPACTGCY-OH; disulfide 4-9, 5-13, 8-16 (inferred); N-terminus and C-terminus assumed) |  | 25.3 |  |  |  | 17.5
C[C@@H]1NC(=O)[C@@H]2CCCN2C(=O)[C@H](CC(N)=O)NC(=O)[C@@H]2CSSC[C@H](NC(=O)[C@H](CC(=O)O)NC(=O)[C@@H](N)CC(=O)O)C(=O)N[C@H]3CSSC[C@H](NC1=O)C(=O)N[C@@H]([C@@H](C)O)C(=O)NCC(=O)N[C@H](C(=O)N[C@@H](Cc1ccc(O)cc1)C(=O)O)CSSC[C@H](NC(=O)[C@H](Cc1ccc(O)cc1)NC(=O)[C@H](CCC(=O)O)NC3=O)C(=O)N2 [Peptide 4, DDCCEYCCNPACTGCY] (H-DDCCEYCCNPACTGCY-OH; disulfide 3-8, 4-12, 7-15 (inferred); N-terminus and C-terminus assumed) | 6.3 | 48.0 |  | 80 | 2.0 | 5.27
C[C@@H]1NC(=O)[C@@H]2CCCN2C(=O)[C@H](CC(N)=O)NC(=O)[C@@H]2CSSC[C@H](NC(=O)[C@H](CC(=O)O)NC(=O)[C@H](CC(=O)O)NC(=O)[C@@H](N)CC(=O)O)C(=O)N[C@H]3CSSC[C@H](NC1=O)C(=O)N[C@@H]([C@@H](C)O)C(=O)NCC(=O)N[C@H](C(=O)N[C@@H](Cc1ccc(O)cc1)C(=O)O)CSSC[C@H](NC(=O)[C@H](Cc1ccc(O)cc1)NC(=O)[C@H](CCC(=O)O)NC3=O)C(=O)N2 [Peptide 5, DDDCCEYCCNPACTGCY] | 7.54 | 256 |  |  |  | 5.52
C[C@@H]1NC(=O)[C@@H]2CCCN2C(=O)[C@H](CC(N)=O)NC(=O)[C@@H]2CSSC[C@H](NC(=O)[C@H](CC(=O)O)NC(=O)[C@H](CC(=O)O)NC(=O)CN)C(=O)N[C@H]3CSSC[C@H](NC1=O)C(=O)N[C@@H]([C@@H](C)O)C(=O)NCC(=O)N[C@H](C(=O)N[C@@H](Cc1ccc(O)cc1)C(=O)O)CSSC[C@H](NC(=O)[C@H](Cc1ccc(O)cc1)NC(=O)[C@H](CCC(=O)O)NC3=O)C(=O)N2 [Peptide 7, GDDCCEYCCNPACTGCY] (H-GDDCCEYCCNPACTGCY-OH; disulfide 4-9, 5-13, 8-16 (inferred); N-terminus and C-terminus assumed) |  | 383 |  |  |  | 
C[C@@H]1NC(=O)[C@@H]2CCCN2C(=O)[C@H](CC(N)=O)NC(=O)[C@@H]2CSSC[C@H](NC(=O)[C@H](CC(=O)O)NC(=O)[C@H](CC(=O)O)NC(=O)[C@@H]3CCCN3)C(=O)N[C@H]3CSSC[C@H](NC1=O)C(=O)N[C@@H]([C@@H](C)O)C(=O)NCC(=O)N[C@H](C(=O)N[C@@H](Cc1ccc(O)cc1)C(=O)O)CSSC[C@H](NC(=O)[C@H](Cc1ccc(O)cc1)NC(=O)[C@H](CCC(=O)O)NC3=O)C(=O)N2 [Peptide 8, PDDCCEYCCNPACTGCY] (H-PDDCCEYCCNPACTGCY-OH; disulfide 4-9, 5-13, 8-16) |  | 58.2 |  |  |  | 
C[C@H](N)C(=O)N[C@@H](CC(=O)O)C(=O)N[C@@H](CC(=O)O)C(=O)N[C@H]1CSSC[C@@H]2NC(=O)[C@@H]3CSSC[C@@H](C(=O)N[C@@H](Cc4ccc(O)cc4)C(=O)O)NC(=O)CNC(=O)[C@H]([C@@H](C)O)NC(=O)[C@H](CSSC[C@H](NC1=O)C(=O)N[C@@H](CCC(=O)O)C(=O)N[C@@H](Cc1ccc(O)cc1)C(=O)N3)NC(=O)[C@H](C)NC(=O)[C@@H]1CCCN1C(=O)[C@H](CC(N)=O)NC2=O [Peptide 9, ADDCCEYCCNPACTGCY] |  | 79.8 |  |  |  | 1.29
CC(C)C[C@@H]1NC(=O)[C@H](CCC(=O)O)NC(=O)[C@@H]2CSSC[C@@H]3NC(=O)[C@H](C)NC(=O)[C@@H]4CCCN4C(=O)[C@H](CC(N)=O)NC(=O)[C@H](CSSC[C@H](NC(=O)[C@H](CC(=O)O)NC(=O)[C@H](CC(=O)O)NC(=O)[C@@H](N)CC(N)=O)C(=O)N2)NC(=O)[C@H](CSSC[C@@H](C(=O)N[C@@H](Cc2ccc(O)cc2)C(=O)O)NC(=O)CNC(=O)[C@H]([C@@H](C)O)NC3=O)NC1=O [Peptide 11, NDDCCELCCNPACTGCY] |  | 2.7 |  |  |  | 6.43
CC(C)C[C@@H]1NC(=O)[C@H](CCC(=O)O)NC(=O)[C@@H]2CSSC[C@@H]3NC(=O)[C@H](C)NC(=O)[C@@H]4CCCN4C(=O)[C@H](CC(N)=O)NC(=O)[C@H](CSSC[C@H](NC(=O)[C@H](CC(=O)O)NC(=O)[C@H](CC(=O)O)NC(=O)[C@H](C)N)C(=O)N2)NC(=O)[C@H](CSSC[C@@H](C(=O)N[C@@H](Cc2ccc(O)cc2)C(=O)O)NC(=O)CNC(=O)[C@H]([C@@H](C)O)NC3=O)NC1=O [Peptide 13, ADDCCELCCNPACTGCY] |  | 62.5 |  |  |  | 
CC(C)C[C@@H]1NC(=O)[C@H](CCC(=O)O)NC(=O)[C@@H]2CSSC[C@@H]3NC(=O)[C@H](C)NC(=O)[C@@H]4CCCN4C(=O)[C@H](CC(N)=O)NC(=O)[C@H](CSSC[C@H](NC(=O)[C@H](CC(=O)O)NC(=O)[C@@H](N)CC(=O)O)C(=O)N2)NC(=O)[C@H](CSSC[C@@H](C(=O)N[C@@H](Cc2ccc(O)cc2)C(=O)O)NC(=O)CNC(=O)[C@H]([C@@H](C)O)NC3=O)NC1=O [Peptide 16, DDCCELCCNPACTGCY] (H-DDCCELCCNPACTGCY-OH; disulfide 3-8, 4-12, 7-15 (inferred); N-terminus and C-terminus assumed) |  | 26.9 |  |  |  | 
CC(C)C[C@@H]1NC(=O)[C@H](CCC(=O)O)NC(=O)[C@@H]2CSSC[C@@H]3NC(=O)[C@H](C)NC(=O)[C@@H]4CCCN4C(=O)[C@H](CC(N)=O)NC(=O)[C@H](CSSC[C@H](NC(=O)[C@H](CC(=O)O)NC(=O)[C@H](CC(=O)O)NC(=O)[C@@H](N)CC(=O)O)C(=O)N2)NC(=O)[C@H](CSSC[C@@H](C(=O)N[C@@H](Cc2ccc(O)cc2)C(=O)O)NC(=O)CNC(=O)[C@H]([C@@H](C)O)NC3=O)NC1=O [Peptide 17, DDDCCELCCNPACTGCY] | 2.9 | 386.2 |  |  | 1.8 | 6.35
CC(C)C[C@@H]1NC(=O)[C@H](CCC(=O)O)NC(=O)[C@@H]2CSSC[C@@H]3NC(=O)[C@H](C)NC(=O)[C@@H]4CCCN4C(=O)[C@H](CC(N)=O)NC(=O)[C@H](CSSC[C@H](NC(=O)[C@H](CC(=O)O)NC(=O)[C@H](CC(=O)O)NC(=O)[C@@H]4CCCN4)C(=O)N2)NC(=O)[C@H](CSSC[C@@H](C(=O)N[C@@H](Cc2ccc(O)cc2)C(=O)O)NC(=O)CNC(=O)[C@H]([C@@H](C)O)NC3=O)NC1=O [Peptide 18, PDDCCELCCNPACTGCY] (H-PDDCCELCCNPACTGCY-OH; disulfide 4-9, 5-13, 8-16 (inferred); N-terminus and C-terminus assumed) |  | 205.2 |  |  |  | 
CC(C)C[C@@H]1NC(=O)[C@H](CCC(=O)O)NC(=O)[C@@H]2CSSC[C@@H]3NC(=O)[C@H](C)NC(=O)[C@@H]4CCCN4C(=O)[C@H](CC(N)=O)NC(=O)[C@H](CSSC[C@H](NC(=O)[C@H](CC(=O)O)NC(=O)[C@H](CC(=O)O)NC(=O)CN)C(=O)N2)NC(=O)[C@H](CSSC[C@@H](C(=O)N[C@@H](Cc2ccc(O)cc2)C(=O)O)NC(=O)CNC(=O)[C@H]([C@@H](C)O)NC3=O)NC1=O [Peptide 19, GDDCCELCCNPACTGCY] (H-GDDCCELCCNPACTGCY-OH; disulfide 4-9, 5-13, 8-16 (inferred); N-terminus and C-terminus assumed) |  | 61.5 |  |  |  | 
CC(C)C[C@@H]1NC(=O)[C@H](CCC(=O)O)NC(=O)[C@@H]2CSSC[C@@H]3NC(=O)[C@H](C)NC(=O)[C@@H]4CCCN4C(=O)[C@H](CC(N)=O)NC(=O)[C@H](CSSC[C@H](NC(=O)[C@H](CC(=O)O)NC(=O)[C@H](CC(=O)O)NC(=O)[C@@H](N)CC(=O)O)C(=O)N2)NC(=O)[C@H](CSSC[C@@H](C(=O)O)NC(=O)CNC(=O)[C@H]([C@@H](C)O)NC3=O)NC1=O [Peptide 20, DDDCCELCCNPACTGC] (H-DDDCCELCCNPACTGC-OH; disulfide 4-9, 5-13, 8-16 (inferred); N-terminus and C-terminus assumed) |  | 90 |  |  |  | 3.6
